Results taken from patent US6713492B1, “N-acyloxylated cycloalkyl compounds, composition containing the same and methods of use therefor” (Daiichi Radioisotope Laboratories, Ltd., priority 1998, dated 2004).

Legend:
Esterase, Porcine Liver = assay: Test for measuring enzyme activity: hydrolysis of the sample by esterase, followed by ESR; format: in vitro ADME; details: 1 mM sample solution, esterase 0.2-200 U/ml in phosphate buffered saline pH7.4, one minute, oxidised to nitroxide
Experimental: Capability of enzyme (esterase) activity determination by ESR using 1-acetoxy-3-carbamoyl-2,2,5,5-tetramethylpyrrolidine was examined. Esterase (3360 U/ml, manufactured by Sigma Co., Esterase, Porcine Liver) was diluted with a phosphate buffered saline solution (pH7.4, 67 mM) to concentrations of 0.2, 2, 20, and 200 U/ml. 100 μl of each diluent was added to 100 μl of a 1 mM sample solution, and allowed to stand for one minute. Specifically, the sample was converted into a hydroxylamine derivative using the esterase. Next, 10 μl of 10 mM sodium periodide phosphate buffered saline solution was added. Specifically, the hydroxylamine derivative produced was converted into a nitroxide derivative which can be measured by ESR. Finally, this solution is suctioned into a flat cell (manufactured by Labotech Co.) to measure ESR spectrum using “JES-REIX” manufactured by JEOL Ltd after one minute.
In addition, it was confirmed that the esterase activity can be measured by using this reaction.

rat brain = assay: Measurement of ESR-CT image of rat brain after intraperitoneal administration; format: in vivo, Wister male rats; details: 6 ml of 150 mM saline solution intraperitoneally, ESR-CT 20 minutes after administration
Experimental: 6 ml of 150 mM physiological saline solution of 1-acetoxy-3-carbamoyl-2,2,5,5-tetramethylpyrrolidine was intraperitoneally administered to Wister male rats (200 g, age: nine weeks) anesthesized with pentobarbital. The head of the rat was secured so that the part of the head 9 mm ahead of the external auditory meatus came to the center of the resonator. ESR-CT was measured 20 minutes after administration. The measuring conditions of ESR-CT were as follows.
(Measurement Conditions of ESR-CT)
Instrument: 700 MHz band electron spin resonance apparatus
Microwave frequency: 720 MHz
Central magnetic field: 25 mT
Magnetic field sweep width: 15 mT
Magnetic field modulation width: 0.2 mT
Magnetic field modulation frequency: 100 kHz
Magnetic field gradient: 1 mT/cm
Magnetic field gradient rotational angle: 20°
The measured black-and-white picture image is shown in FIG. 2, and a color picture image is attached as a reference figure. In FIG. 2, A is a rat brain ESR-CT image 1 mm posterior to the bregma, and B is a rat brain ESR-CT image 3 mm posterior to the bregma. FIG. 3 is a drawing describing the part of the brain indicated by the anatomical chart in FIG. 2.

SMILES	melting point [°C]	hydrolysis by esterase (ESR signal strength vs esterase concentration) (Esterase, Porcine Liver)	transfer to the brain and conversion to nitroxide derivative (rat brain)
CC1(C)CC(C(N)=O)C(C)(C)N1OC(=O)c1ccccc1 (stereo not drawn) [Example 4, 1-Benzoyloxy-3-carbamoyl-2,2,5,5-tetramethylpyrrolidine]	199 to 201	–	–
CC(=O)ON1C(C)(C)CC(C(N)=O)C1(C)C (stereo not drawn) [1-Acetoxy-3-carbamoyl-2,2,5,5-tetramethylpyrrolidine]	150 to 151	hydrolyzed by esterase in a short time and the reaction is quantitative	hydrolyzed after being transferred to the brain, and oxidized by intracerebral active oxygen and free radicals into a nitroxide derivative
CC(=O)OC1CC(C)(C)N(OC(C)=O)C(C)(C)C1 [Example 5, 1,4-Diacetoxy-2,2,6,6-tetramethylpiperidine]	72 to 73	–	–
CCC(=O)ON1C(C)(C)CC(C(N)=O)C1(C)C (stereo not drawn) [Example 2, 1-Propionyloxy-3-carbamoyl-2,2,5,5-tetramethylpyrrolidine]	116 to 117	–	–
